Measurements as given in US20030170326A1, “Bioavailability enchancing activity of Zingiber officinale Linn and its extracts/fractions thereof” (COUNCIL OF SCIENTIFIC AND INDUSTRIAL RESEARCH, priority 2001, published 2003).
Where two headings read alike, the source gives them in different places.

Key:
[1] = Bioavailability enhancement of a drug/nutraceutical/herbal product given with bioenhancer (BE) to fasted rats; plasma drug level by HPLC, 0-24 hrs; details: for % Enhancement in bioavailability, Piperine + BE from Zingiber officinale: drug + piperine 8 mg/kg + BE from Zingiber officinale
[2] = rat, in vivo

Row | SMILES | % Enhancement in bioavailability, Piperine + BE from Zingiber officinale [1] [%] | % Enhancement in bioavailability, Piperine + BE from Zingiber officinale [2] | also measured
1 | O=c1[nH]cc(F)c(=O)[nH]1 [5-Fluorouracil] | 93 |  | 
2 | CC(=O)N1CCN(c2ccc(OCC3COC(Cn4ccnc4)(c4ccc(Cl)cc4Cl)O3)cc2)CC1 (centres unmarked) [Ketoconazole] | 100 |  | 
3 | CC(C)NCC(O)COc1cccc2ccccc12 (centres unmarked) [Propranolol] | 104 |  | 
4 | Cc1onc(-c2ccccc2Cl)c1C(=O)N[C@@H]1C(=O)N2[C@@H]1SC(C)(C)[C@@H]2C(=O)O [Cloxacillin] |  | 90% | 
5 | CS(=O)(=O)Nc1ccc([N+](=O)[O-])cc1Oc1ccccc1 [Nimesulide] | 165 |  | 
6 | COc1cccc2c1C(=O)c1c(O)c3c(c(O)c1C2=O)C[C@@](O)(C(=O)CO)C[C@@H]3O[C@H]1C[C@H](N)[C@H](O)[C@H](C)O1 [Doxorubicin] | 75 |  | 
7 | CC1COc2c(N3CCN(C)CC3)c(F)cc3c(=O)c(C(=O)O)cn1c23 (centres unmarked) [O-floxacin, Ofloxacin] |  | 67% | 
8 | CC[C@H]1OC(=O)[C@H](C)[C@@H](O[C@H]2C[C@@](C)(OC)[C@@H](O)[C@H](C)O2)[C@H](C)[C@@H](O[C@@H]2O[C@H](C)C[C@H](N(C)C)[C@H]2O)[C@](C)(O)C[C@@H](C)C(=O)[C@H](C)[C@@H](O)[C@]1(C)O [Erythromycin] |  | 105% | 
9 | N[C@@H]1CON=C1O [Cycloserine] |  | 70% | 
10 | CC(C)(C)NCC(O)c1ccc(O)c(CO)c1 (centres unmarked) [Salbutamol] | 92 |  | 
11 | Cn1c(=O)c2[nH]cnc2n(C)c1=O [Theophylline] | 80 |  | 
12 | CN(Cc1cnc2nc(N)nc(N)c2n1)c1ccc(C(=O)N[C@@H](CCC(=O)O)C(=O)O)cc1 [Methotrexate] | 49 |  | 
13 | CN1C(C(=O)Nc2ccccn2)=C(O)c2ccccc2S1(=O)=O [Piroxicam] |  | 134% | 
14 | O=C(O)Cc1ccccc1Nc1c(Cl)cccc1Cl [Diclofenac] |  | 140% | 
15 | CC[C@H]1OC(=O)[C@H](C)[C@@H](O[C@H]2C[C@@](C)(OC)[C@@H](O)[C@H](C)O2)[C@H](C)[C@@H](O[C@@H]2O[C@H](C)C[C@H](N(C)C)[C@H]2O)[C@](C)(O)C[C@@H](C)CN(C)[C@H](C)[C@@H](O)[C@]1(C)O [Azithromycin] |  | 85% | 
16 | CC1(C)S[C@@H]2[C@H](NC(=O)[C@H](N)c3ccc(O)cc3)C(=O)N2[C@H]1C(=O)O [Amoxycillin] | 90 |  | 
17 | CCOC(=O)C1=C(COCCN)NC(C)=C(C(=O)OC)C1c1ccccc1Cl (centres unmarked) [Amlodipine] |  | 95% | 
18 | CN(Cc1cc(Br)cc(Br)c1N)C1CCCCC1 [Bromhexine] | 75 |  | % Enhancement in bioavailability, BE from Zingiber officinale ([1]; drug + BE from Zingiber officinale (extract 30 mg/kg or fraction No 1 15 mg/kg)): 46%
19 | C=CC[C@@H]1/C=C(\C)C[C@H](C)C[C@H](OC)[C@H]2O[C@@](O)(C(=O)C(=O)N3CCCC[C@H]3C(=O)O[C@H](/C(C)=C/[C@@H]3CC[C@@H](O)[C@H](OC)C3)[C@H](C)[C@@H](O)CC1=O)[C@H](C)C[C@@H]2OC [Tacrolimus] |  | 117% | 

Row | SMILES | % Enhancement in bioavailability, Piperine + BE from Zingiber officinale [1] [%] | % Enhancement in bioavailability, Piperine + BE from Zingiber officinale [2] | also measured
20 | Nc1ccc(S(=O)(=O)c2ccc(N)cc2)cc1 [Dapsone] | 55 |  | 
21 | CC1=C(C(=O)O)N2C(=O)[C@@H](NC(=O)[C@H](N)c3ccc(O)cc3)[C@H]2SC1 [Cefadroxil] |  | 65% | 
22 | NCCCC[C@H](N[C@@H](CCc1ccccc1)C(=O)O)C(=O)N1CCC[C@H]1C(=O)O [Lisinopril] | 100 |  | 
23 | NCC[C@H](O)C(=O)N[C@@H]1C[C@H](N)[C@@H](O[C@H]2O[C@H](CN)[C@@H](O)[C@H](O)[C@H]2O)[C@H](O)[C@H]1O[C@H]1O[C@H](CO)[C@@H](O)[C@H](N)[C@H]1O [Amikacin] |  | Nil | 
24 | CNC(=C[N+](=O)[O-])NCCSCc1ccc(CN(C)C)o1 [Ranitidine] |  | 165% | 
25 | CC[C@@H](CO)NCCN[C@@H](CC)CO [Ethambutol] |  | Nil | 
26 | NC(=O)c1cnccn1 [Pyrazinamide] |  | Nil | 
27 | CO[C@H]1/C=C/O[C@@]2(C)Oc3c(C)c(O)c4c(O)c(c(/C=N/N5CCN(C)CC5)c(O)c4c3C2=O)NC(=O)/C(C)=C\C=C\[C@H](C)[C@H](O)[C@@H](C)[C@@H](O)[C@@H](C)[C@H](OC(C)=O)[C@@H]1C [Rifampicin] | 98 |  | 
28 | CC[C@H]1OC(=O)[C@H](C)[C@@H](O[C@H]2C[C@@](C)(OC)[C@@H](O)[C@H](C)O2)[C@H](C)[C@@H](O[C@@H]2O[C@H](C)C[C@H](N(C)C)[C@H]2O)[C@](C)(O)C[C@@H](C)/C(=N\OCOCCOC)[C@H](C)[C@@H](O)[C@]1(C)O [Roxythromycin] |  | 93% | 
29 | Cc1nnc2n1-c1ccc(Cl)cc1C(c1ccccc1)=NC2 [Aiprazolam, Alprazolam] | 70 |  | 
30 | NNC(=O)c1ccncc1 [Isoniazid] |  | Negligible | 
31 | COc1ccc2[nH]c([S+]([O-])Cc3ncc(C)c(OC)c3C)nc2c1 (centres unmarked) [Omeprazole] |  | Nil | 
32 | CCc1cc(C(N)=S)ccn1 [Ethionamide] | 48 |  | 
33 | Nc1nc2c(ncn2COCCO)c(=O)[nH]1 [Acyclovir] |  | 85% | 
34 | Cc1cn([C@H]2C[C@H](N=[N+]=[N-])[C@@H](CO)O2)c(=O)[nH]c1=O [Zidovudine] | 126 |  | 
35 | C=CC1=C(C(=O)O)N2C(=O)[C@@H](NC(=O)/C(=N\OCC(=O)O)c3csc(N)n3)[C@H]2SC1 [Cefixime] |  | Nil | 
36 | CN/C(=N/CCSCc1nc[nH]c1C)NC#N [Cimetidine] | 76 |  | 
37 | CCn1cc(C(=O)O)c(=O)c2cc(F)c(N3CCNCC3)cc21 [Norfloxacin] |  | Negligible | 
